Experimental data reported in ChEMBL document CHEMBL1201862, “PubChem BioAssay data set” (2004).
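1) Cells in 96-well plates. 2) Compound, 48 h, 5 concentrations. 3) Linear interpolation between surrounding doses. 4) Unreached endpoint = highest concentration. GI50 is the concentration that inhibits growth by half.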 The source made the active and inactive calls. Cut-off read from the data, not from the text of the source: active = GI50 up to about 1.1 µM and inactive = higher.

What was measured:
Test in all cases: inhibition of tumour cell growth, NCI panel, 48 h
[1] = tested on: 786-0
[2] = tested on: A498
[3] = tested on: A549
[4] = tested on: ACHN
[5] = tested on: BT-549
[6] = tested on: CAKI-1
[7] = tested on: CCRF-CEM
[8] = tested on: COLO 205
[9] = tested on: DU-145
[10] = tested on: EKVX
[11] = tested on: HCC 2998
[12] = tested on: HCT-116
[13] = tested on: HCT-15
[14] = tested on: HL-60
[15] = tested on: HOP-62
[16] = tested on: HOP-92
[17] = tested on: HT-29
[18] = tested on: Hs-578T
[19] = tested on: IGROV-1
[20] = tested on: K562
[21] = tested on: KM12
[22] = tested on: LOX IMVI
[23] = tested on: M14
[24] = tested on: MCF7
[25] = tested on: MDA-MB-231
[26] = tested on: MDA-MB-435
[27] = tested on: MDA-N
[28] = tested on: MOLT-4
[29] = tested on: Malme-3M
[30] = tested on: NCI-H226
[31] = tested on: NCI-H23
[32] = tested on: NCI-H460
[33] = tested on: NCI-H522
[34] = tested on: NCI/ADR-RES
[35] = tested on: OVCAR-3
[36] = tested on: OVCAR-4
[37] = tested on: OVCAR-5
[38] = tested on: OVCAR-8
[39] = tested on: PC-3
[40] = tested on: RPMI-8226
[41] = tested on: RXF 393
[42] = tested on: SF-268
[43] = tested on: SF-295
[44] = tested on: SF-539
[45] = tested on: SK-MEL-28
[46] = tested on: SK-MEL-2
[47] = tested on: SK-MEL-5
[48] = tested on: SK-OV-3
[49] = tested on: SN12C
[50] = tested on: SNB-19
[51] = tested on: SNB-75
[52] = tested on: SW-620
[53] = tested on: T47D
[54] = tested on: TK-10
[55] = tested on: U-251
[56] = tested on: UACC-257
[57] = tested on: UACC-62
[58] = tested on: UO-31
[59] = tested on: SR

Fc1nc(Sc2ncnc3nc[nH]c23)nc(-c2c3ccccc3c3sc4ccccc4n23)n1
GI50 [1]: > 100 µM (inactive)
GI50 [2]: > 100 µM (inactive)
GI50 [3]: > 100 µM (inactive)
GI50 [4]: > 100 µM (inactive)
GI50 [5]: > 100 µM (inactive)
GI50 [6]: > 100 µM (inactive)
GI50 [7]: 40.7 µM (inactive)
GI50 [8]: > 100 µM (inactive)
GI50 [9]: > 100 µM (inactive)
GI50 [10]: > 100 µM (inactive)
GI50 [11]: > 100 µM (inactive)
GI50 [12]: > 100 µM (inactive)
GI50 [13]: > 100 µM
GI50 [14]: > 100 µM (inactive)
GI50 [15]: > 100 µM (inactive)
GI50 [16]: > 100 µM (inactive)
GI50 [17]: > 100 µM (inactive)
GI50 [18]: > 100 µM (inactive)
GI50 [19]: > 100 µM (inactive)
GI50 [20]: > 100 µM (inactive)
GI50 [21]: > 100 µM (inactive)
GI50 [22]: 80 µM (inactive)
GI50 [23]: 43.3 µM (inactive)
GI50 [24]: > 100 µM (inactive)
GI50 [25]: > 100 µM (inactive)
GI50 [26]: > 100 µM (inactive)
GI50 [27]: > 100 µM (inactive)
GI50 [28]: 77.8 µM (inactive)
GI50 [29]: > 100 µM (inactive)
GI50 [30]: > 100 µM (inactive)
GI50 [31]: > 100 µM (inactive)
GI50 [32]: > 100 µM (inactive)
GI50 [33]: > 100 µM (inactive)
GI50 [34]: > 100 µM (inactive)
GI50 [35]: > 100 µM (inactive)
GI50 [36]: > 100 µM (inactive)
GI50 [37]: > 100 µM (inactive)
GI50 [38]: > 100 µM (inactive)
GI50 [39]: > 100 µM (inactive)
GI50 [40]: > 100 µM (inactive)
GI50 [41]: > 100 µM (inactive)
GI50 [42]: 36.3 µM (inactive)
GI50 [43]: > 100 µM (inactive)
GI50 [44]: > 100 µM (inactive)
GI50 [45]: 85.5 µM (inactive)
GI50 [46]: > 100 µM (inactive)
GI50 [47]: > 100 µM (inactive)
GI50 [48]: > 100 µM (inactive)
GI50 [49]: > 100 µM (inactive)
GI50 [50]: > 100 µM (inactive)
GI50 [51]: > 100 µM (inactive)
GI50 [52]: > 100 µM (inactive)
GI50 [53]: > 100 µM (inactive)
GI50 [54]: > 100 µM (inactive)
GI50 [55]: > 100 µM (inactive)
GI50 [56]: > 100 µM (inactive)
GI50 [57]: > 100 µM (inactive)
GI50 [58]: > 100 µM (inactive)

COc1cc(OC)cc(OCc2nc3cc(C(F)(F)F)ccc3nc2-c2ccccc2)c1
GI50 [1]: > 100 µM (inactive)
GI50 [3]: > 100 µM (inactive)
GI50 [4]: > 100 µM (inactive)
GI50 [5]: > 100 µM (inactive)
GI50 [6]: > 100 µM (inactive)
GI50 [7]: > 100 µM (inactive)
GI50 [8]: > 100 µM (inactive)
GI50 [9]: > 100 µM (inactive)
GI50 [10]: 22.2 µM (inactive)
GI50 [11]: > 100 µM (inactive)
GI50 [12]: > 100 µM (inactive)
GI50 [13]: > 100 µM
GI50 [14]: > 100 µM (inactive)
GI50 [15]: > 100 µM (inactive)
GI50 [16]: > 100 µM (inactive)
GI50 [17]: 29.4 µM (inactive)
GI50 [18]: 69.2 µM (inactive)
GI50 [19]: 0.809 µM (active)
GI50 [20]: > 100 µM (inactive)
GI50 [21]: > 100 µM (inactive)
GI50 [22]: > 100 µM (inactive)
GI50 [23]: > 100 µM (inactive)
GI50 [24]: > 100 µM (inactive)
GI50 [25]: 76.4 µM (inactive)
GI50 [26]: > 100 µM (inactive)
GI50 [27]: > 100 µM (inactive)
GI50 [28]: > 100 µM (inactive)
GI50 [29]: > 100 µM (inactive)
GI50 [30]: 90.8 µM (inactive)
GI50 [31]: > 100 µM (inactive)
GI50 [32]: > 100 µM (inactive)
GI50 [33]: > 100 µM (inactive)
GI50 [34]: > 100 µM (inactive)
GI50 [35]: > 100 µM (inactive)
GI50 [36]: > 100 µM (inactive)
GI50 [37]: > 100 µM (inactive)
GI50 [38]: > 100 µM (inactive)
GI50 [39]: > 100 µM (inactive)
GI50 [40]: > 100 µM (inactive)
GI50 [41]: > 100 µM (inactive)
GI50 [42]: > 100 µM (inactive)
GI50 [43]: > 100 µM (inactive)
GI50 [44]: > 100 µM (inactive)
GI50 [45]: > 100 µM (inactive)
GI50 [46]: > 100 µM (inactive)
GI50 [48]: > 100 µM (inactive)
GI50 [49]: > 100 µM (inactive)
GI50 [50]: > 100 µM (inactive)
GI50 [51]: > 100 µM (inactive)
GI50 [59]: > 100 µM (inactive)
GI50 [52]: > 100 µM (inactive)
GI50 [53]: 48 µM (inactive)
GI50 [54]: > 100 µM (inactive)
GI50 [55]: > 100 µM (inactive)
GI50 [56]: > 100 µM (inactive)
GI50 [57]: > 100 µM (inactive)
GI50 [58]: > 100 µM (inactive)
